Measurements published in patent US10111881B2 (priority 2016, dated 2018).
“Also recorded” adds a separate entry of the source. Where two headings read alike, the source gives them in different places.

Tests used:
HeLa cells [1] = format: cell-based, human; settings: for Dextran Uptake: 50 μM
[2] = tested on: Baby hamster kidney fibroblasts (BHK) cells; test: Acridine orange assay for acidification blockers; format: cell-based
HeLa cells [3] = tested on: HeLa cells
MARV = test: microbe, parasite or virus in culture; format: cell-based, Marburgvirus (Musoke strain)
EBOV [4] = test: organism not typed; format: cell-based, Zaire Ebolavirus (Mayinga strain)
EBOV [5] = test: microbe, parasite or virus in culture; format: cell-based, Zaire Ebolavirus (Mayinga strain)
EBOV [6] = format: cell-based, Zaire Ebolavirus (Mayinga strain)
HeLa cells [7] = format: cell-based, human; settings: for Transferrin uptake: 50 μM
Cathepsin = Cathepsin cleavage of GP
NPC1 C-loop = target: T1, NPC1 C-loop (Homo sapiens, UniProt O15118); test: NPC1 C-loop binding
T1 construct: C-loop
T1 sequence (O15118 372-620 limits assumed): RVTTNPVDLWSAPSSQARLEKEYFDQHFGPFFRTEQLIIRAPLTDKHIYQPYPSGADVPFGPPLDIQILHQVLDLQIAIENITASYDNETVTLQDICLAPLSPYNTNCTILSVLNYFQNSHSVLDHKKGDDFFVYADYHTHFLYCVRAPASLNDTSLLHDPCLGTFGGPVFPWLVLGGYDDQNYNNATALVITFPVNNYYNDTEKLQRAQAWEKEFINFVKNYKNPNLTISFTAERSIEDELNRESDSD

IL-1-Beta = settings: PubChem / MLSMR data; cited from earlier work
EEA1-positive vesicles = format: cell-based, human
LAMP1-positive vesicles = format: cell-based, human
[8] = read-out: Activity in macrophages IC50

Structure (SMILES): CCN(c1nc(N)c(C(=O)NC(=N)N)nc1Cl)C(C)C [EIPA, reference compound]
- reduction of uptake of fluorescently labeled dextran (HeLa cells [1]): 95%
- effect on endosomal acidification [2]: decreases endosomal acidification
- toxic concentration (not toxic up to / toxic at) (HeLa cells [3]): 37 µM

Structure (SMILES): C=C(c1ccc(O)cc1)c1ccc(O)cc1 [MLS000078751]
- Curve class (MARV) (MARV): 1.5
- MARV (Curve class) (MARV): 1.5
- IC50 (MARV; read-out: IC-50 (MARV)): 6.13 µM
- IC50 (MARV; read-out: MARV HeLa IC50): 6.1 µM
- Curve Class (EBOV) (EBOV [4]): 1.3
- EBOV (curve class) (EBOV [4]): 1.3
- IC50 (EBOV [4]; read-out: EBOV HeLa IC50): 25.6 µM
- IC50 (EBOV [4]; read-out: IC-50 (EBOV)): 25.6 µM
- IC50 (EBOV [5]; [8]): ~25 µM
- Surface interaction (EBOV [6]): −
- Uninfected cell number (EBOV [6]): +
- decrease in total viral particles bound to cell surface (EBOV [6]): 53%
- virus particle uptake (EBOV [6]): reduced particle uptake
- Dextran Uptake (HeLa cells [1]): 0
- Transferrin uptake (HeLa cells [7]): 0
- Acidification Block [2]: −
- Cathepsin clevage (Cathepsin): 0
- NPC1 C-loop binding (NPC1 C-loop): 0
- secretion of IL-1-Beta (IL-1-Beta): inhibit secretion of IL-1-Beta

Structure (SMILES): CC(C)(CS(=O)(=O)[O-])NC(=O)CC[N+](C)(C)CCO [MLS000554255]
- Curve class (MARV) (MARV): 1.3
- MARV (Curve class) (MARV): 1.3
- IC50 (MARV; read-out: IC-50 (MARV)): 6.39 µM
- IC50 (MARV; read-out: MARV HeLa IC50): 6.4 µM
- Curve Class (EBOV) (EBOV [4]): 1.5
- EBOV (curve class) (EBOV [4]): 1.5
- IC50 (EBOV [4]; read-out: EBOV HeLa IC50): 6.8 µM
- IC50 (EBOV [4]; read-out: IC-50 (EBOV)): 6.84 µM
- IC50 (EBOV [5]; [8]): 6 µM
- Surface interaction (EBOV [6]): 0
- Uninfected cell number (EBOV [6]): +
- number of cells without virus bound (EBOV [6]): increased the number of cells without virus bound
- Dextran Uptake (HeLa cells [1]): 0
- effect on transferrin uptake (HeLa cells [7]): do not inhibit transferrin uptake
- Transferrin uptake (HeLa cells [7]): 0
- Effect on EEA1 (EEA1-positive vesicles): +
- increase of colocalization of VLPs with EEA1-positive vesicles (EEA1-positive vesicles): 83%
- Effect on LAMP1 (LAMP1-positive vesicles): −
- reduction of number of VLPs present in LAMP1-positive vesicles (LAMP1-positive vesicles): 33%
- Acidification Block [2]: −
- Cathepsin clevage (Cathepsin): 0
- NPC1 C-loop binding (NPC1 C-loop): 0

Structure (SMILES): Cc1cc(N2CCN(C)CC2)nc2ccc(NC(=S)NCCCN3CCc4ccccc4C3)cc12 [MLS000730532]
- Curve class (MARV) (MARV): 1.3
- MARV (Curve class) (MARV): 1.3
- IC50 (MARV; read-out: IC-50 (MARV)): 1.93 µM
- IC50 (MARV; read-out: MARV HeLa IC50): 1.9 µM
- IC50 (EBOV [4]; read-out: EBOV HeLa IC50): 1.6 µM
- IC50 (EBOV [4]; read-out: IC-50 (EBOV)): 1.56 µM
- IC50 (EBOV [5]; [8]): 9.5 µM
- Surface interaction (EBOV [6]): 0
- Uninfected cell number (EBOV [6]): 0
- reduction of number of viral particles inside the cell body (EBOV [6]): 89%
- reduction of uptake of fluorescently labeled dextran (HeLa cells [1]): ~74%
- Dextran Uptake (HeLa cells [1]): −
- effect on transferrin uptake (HeLa cells [7]): impaired uptake of this marker, comparable to chlorpromazine
- Transferrin uptake (HeLa cells [7]): −
- Acidification Block [2]: +
- effect on endosomal acidification [2]: affected endosomal acidification
- Cathepsin clevage (Cathepsin): 0
- NPC1 C-loop binding (NPC1 C-loop): 0
- secretion of IL-1-Beta (IL-1-Beta): inhibit secretion of IL-1-Beta

Structure (SMILES): Cc1cc(-c2nn(-c3ccccc3F)cc2CN2CCN(c3ccncc3)CC2)c(C)s1 [MLS000733230, 1-[[3-(2,5-dimethylthiophen-3-yl)-1-(2-fluorophenyl)pyrazol-4-yl]methyl]-4-pyridin-4-ylpiperazine]
- Curve class (MARV) (MARV): 1.3
- MARV (Curve class) (MARV): 1.3
- IC50 (MARV; Orthomarburgvirus, HeLa, read-out: IC-50 (MARV)): 11.7 µM
- IC50 (MARV; Orthomarburgvirus, HeLa, read-out: MARV HeLa IC50 (μM)): 11.7 µM
- Curve Class (EBOV) (EBOV [4]): 1.3
- EBOV (curve class) (EBOV [4]): 1.3
- potency for Ebolavirus inhibition, times better than EIPA (EBOV [4]): 7 times
- EC50 (EBOV [4]; HeLa, read-out: EC50 for Ebolavirus inhibition): 6.7 µM
- IC50 (EBOV [4]; Zaire ebolavirus, HeLa, read-out: EBOV HeLa IC50 (μM)): 6.7 µM
- IC50 (EBOV [4]; Zaire ebolavirus, HeLa, read-out: IC-50 (EBOV)): 6.7 µM
- IC50 (EBOV [5]; Zaire ebolavirus, Macrophage, read-out: Activity in macrophages IC50 (μM)): 4.4 µM
- Surface interaction (EBOV [6]): 0
- Uninfected cell number (EBOV [6]): 0
- reduction of number of viral particles inside the cell body (EBOV [6]): 91%
- reduction of uptake of fluorescently labeled dextran (HeLa cells [1]): approximately 91%
- Dextran Uptake (HeLa cells [1]): −
- effect on transferrin uptake (HeLa cells [7]): no effect on transferrin uptake
- Transferrin uptake (HeLa cells [7]): 0
- Acidification Block [2]: +
- effect on endosomal acidification [2]: affected endosomal acidification
- Cathepsin clevage (Cathepsin): 0
- NPC1 C-loop binding (NPC1 C-loop): 0
- toxic concentration (not toxic up to / toxic at) (HeLa cells [3]; human): > 100 µM
- secretion of IL-1-Beta (IL-1-Beta): inhibit secretion of IL-1-Beta

Structure (SMILES): Cc1nn2c(NCCCN(C)C)c3c(nc2c1-c1ccccc1)CCCC3 [MLS000762907]
- Curve class (MARV) (MARV): 1.3
- MARV (Curve class) (MARV): 1.3
- IC50 (MARV; read-out: IC-50 (MARV)): 12.5 µM
- IC50 (MARV; read-out: MARV HeLa IC50): 12.5 µM
- Curve Class (EBOV) (EBOV [4]): 1.3
- EBOV (curve class) (EBOV [4]): 1.3
- IC50 (EBOV [4]; read-out: EBOV HeLa IC50): 3.2 µM
- IC50 (EBOV [4]; read-out: IC-50 (EBOV)): 3.19 µM
- IC50 (EBOV [5]; [8]): 23.4 µM
- Surface interaction (EBOV [6]): 0
- Uninfected cell number (EBOV [6]): 0
- virus particle binding to cell surface (EBOV [6]): did not affect
- effect on macropinocytic uptake of dextran (HeLa cells [1]): not of dextran; also recorded: did not affect
- Dextran Uptake (HeLa cells [1]): 0
- effect on transferrin uptake (HeLa cells [7]): inhibited transferrin uptake; also recorded: reduced uptake of transferrin; also recorded: blocked uptake of transferrin
- Transferrin uptake (HeLa cells [7]): −
- Effect on EEA1 (EEA1-positive vesicles): 0
- VLP colocalization with EEA1 (EEA1-positive vesicles): colocalized with EEA1 positive vesicles normally; also recorded: no effect
- Effect on LAMP1 (LAMP1-positive vesicles): 0
- VLP colocalization with LAMP1 (LAMP1-positive vesicles): no effect
- Acidification Block [2]: +
- Cathepsin clevage (Cathepsin): 0
- NPC1 C-loop binding (NPC1 C-loop): 0

Structure (SMILES): Fc1ccc2c(c1)Sc1ccc(Cl)cc1CC2N1CCN(CCC2OCCO2)CC1 (stereo not drawn) [MLS001179272]
- Curve class (MARV) (MARV): 1.3
- IC50 (MARV; read-out: IC-50 (MARV)): 25.4 µM
- Curve Class (EBOV) (EBOV [4]): 1.5
- IC50 (EBOV [4]; read-out: IC-50 (EBOV)): 0.691 µM

Structure (SMILES): COc1ccc2c(c1)CC(N1CCN(C)CC1)c1cc(OC)ccc1S2.O=C(O)/C=C\C(=O)O (stereo not drawn) [MLS001179278]
- Curve class (MARV) (MARV): 1.2
- IC50 (MARV; read-out: IC-50 (MARV)): 12.5 µM
- Curve Class (EBOV) (EBOV [4]): 1.6
- IC50 (EBOV [4]; read-out: IC-50 (EBOV)): 6.49 µM

Structure (SMILES): CCN(CCNCC(O)COc1ccccc1C(C)C)c1cccc(C)c1.O=C(O)C(=O)O (stereo not drawn) [MLS001179997]
- IC50 (MARV; read-out: IC-50 (MARV)): 25.5 µM
- Curve Class (EBOV) (EBOV [4]): 1.4

Structure (SMILES): Cc1ccc(C(=O)N/C(=C/c2ccc(-c3ccc([N+](=O)[O-])cc3)o2)C(=O)NCCCN(C)C)cc1 [MLS001180408]
- IC50 (MARV; read-out: IC-50 (MARV)): 12.5 µM
- Curve Class (EBOV) (EBOV [4]): 4

Structure (SMILES): OC(CN1CCCCC1)Cn1c2ccc(Cl)cc2c2cc(Cl)ccc21 (stereo not drawn) [MLS001181479]
- Curve class (MARV) (MARV): 1.2
- IC50 (MARV; read-out: IC-50 (MARV)): 25.6 µM
- Curve Class (EBOV) (EBOV [4]): 4

Structure (SMILES): Cc1cc(Cl)cc(C)c1OCCn1ccnc1 [MLS001196083]
- IC50 (MARV; read-out: IC-50 (MARV)): 2.06 µM
- IC50 (EBOV [4]; read-out: IC-50 (EBOV)): 6.19 µM

Structure (SMILES): CN(C)CCCNC(=S)N1CCN(c2nc(-c3ccccc3)cs2)CC1 [MLS001207131]
- Curve class (MARV) (MARV): 1.2
- IC50 (MARV; read-out: IC-50 (MARV)): 25.3 µM
- Curve Class (EBOV) (EBOV [4]): 1.3
- IC50 (EBOV [4]; read-out: IC-50 (EBOV)): 25.2 µM

Structure (SMILES): COc1ccc(Nc2cc(C)nc3ccc(OC)cc23)cc1 [MLS001209453]
- Curve class (MARV) (MARV): 1.2
- IC50 (MARV; read-out: IC-50 (MARV)): 12.5 µM
- Curve Class (EBOV) (EBOV [4]): 1.3
- IC50 (EBOV [4]; read-out: IC-50 (EBOV)): 3.4 µM

Structure (SMILES): Cc1ccccc1NC(=O)CSc1ccc(-c2ccccn2)nn1 [MLS001237534]
- IC50 (MARV; read-out: IC-50 (MARV)): 24.8 µM
- Curve Class (EBOV) (EBOV [4]): 4

Structure (SMILES): CN(C)CCCN(C(=O)c1ccc2ccccc2c1)c1nc2cc3c(cc2s1)OCO3.Cl [MLS001239325]
- Curve class (MARV) (MARV): 1.3
- IC50 (MARV; read-out: IC-50 (MARV)): 13.3 µM
- Curve Class (EBOV) (EBOV [4]): 1.7
- IC50 (EBOV [4]; read-out: IC-50 (EBOV)): 1.55 µM

Structure (SMILES): CCOC(=O)N1CCN(S(=O)(=O)c2ccc(C(=O)N(CCCN(C)C)c3nc4c(C)c(C)ccc4s3)cc2)CC1.Cl [MLS001239358]
- IC50 (MARV; read-out: IC-50 (MARV)): 13 µM
- Curve Class (EBOV) (EBOV [4]): 1.6
- IC50 (EBOV [4]; read-out: IC-50 (EBOV)): 0.609 µM

Structure (SMILES): C=C1C(=O)c2sccc2C(c2ccc(OC)c(OC)c2)C1COC(C)=O (stereo not drawn) [MLS002702500]
- Curve class (MARV) (MARV): 1.3
- IC50 (MARV; read-out: IC-50 (MARV)): 2.06 µM
- IC50 (EBOV [4]; read-out: IC-50 (EBOV)): 5.93 µM
